Measured values as given in patent US10864215B2, “Use of phosphoinositide 3-kinase inhibitors for treatment of vascular malformations” (MEMORIAL SLOAN-KETTERING CANCER CENTER, priority 2015, dated 2020).
“Also recorded” adds a separate entry of the source.

Assays:
[1] = tested on: ANG2; experiment: ANG2 mRNA (RT-qPCR) and protein (ELISA) in PIK3CA^H1047R ECs; assay type: cell-based, human; settings: serum-starved, treated overnight, BYL719 1 μM, MK2206 1 μM, Everolimus 50 nM; for ANG2 protein expression: ELISA; for ANG2 mRNA expression: RT-qPCR
[2] = tested on: phosphorylated AKT (T308 and S473); experiment: Western blot of HUVEC cells expressing TEK L914F; assay type: cell-based, human; settings: HUVEC stably expressing TEK L914F, treated 4 hours
Procedure: FIGS. 27A-27B. Treatment of VM with PI3K inhibitors. (A) Western blot of HUVEC cells transduced with TEK L914F mutation and probed with the indicated antibodies. Cells were treated for 4 hours with the indicated doses of BYL719. (B) Representative images of the allograft VM treated with the topical formulation of BYL719. Free and soluble refer to the two different preparations of the topical formula. Arrows indicate the area affected by the VM allograft.
Proteins were extracted using RIPA buffer and Western blot was performed usim standard methods. Antibodies for Western blot were: pAKT (S473) (Cell Signaling; 4060), pAKT (T308) (Cell Signaling; 2965), AKT (Cell Signaling; 9272), pS6K (T389) (Cell Signaling; 9205), S6K (Cell Signaling; 2708), pS6 (S240/4) (Cell Signaling; 5364), pS6 (S235/6) (Cell Signaling; 4858), S6 (Cell Signaling; 2217), actin (Cell Signaling; 4970). Tube formation assay was performed using Matrigel-coated 48 multiwells as a substrate. 10^5 EC were seeded in EBM-2 media without FBS and analyzed after 6 hours for tube formation.

[3] = tested on: PIK3CA^CAG-CreER VM-derived allografts; experiment: VM allografts treated topically with BYL719 1% (w/w) cream; assay type: in vivo, mice; settings: topical, daily, BYL719 1% (w/w) in two cream formulations (free and soluble BYL719), 3 weeks
Procedure: For the formulation of topical preparations, the cream base Versatile™ (Fargon) was used, which allows the incorporation of active principles and has the ability to vanish rapidly into the skin of the mice. Two different formulations using BYL719 at 1% (w/w) were prepared as follows. Free BYL719: This formulation was generated by mixing BYL719 in powder with the base cream and homogenized using an Ultra-Turrax to achieve a similar distribution of the active principle. Soluble BYL719: For this formula, BYL719 powder was dissolved in a small volume of DMSO (400 mg×mL^−1). This concentrated solution was then incorporated into the base cream with gentle agitation, achieving a homogeneous distribution of the active principle. The topical formulations were applied into the mice lesions at daily-basis and VM growth was assessed as described above.

[4] = tested on: PIK3CA^CAG-CreER VM-derived allografts; experiment: PIK3CA^CAG-CreER VM-derived allografts in nude mice, oral treatment; assay type: in vivo; settings: for VM volume / apoptosis (cleaved caspase 3 in CD31-positive cells) / proliferation (BrdU incorporation in CD31-positive cells): allografts in nude mice, daily p.o., one week, BYL719 50 mg×kg^−1, everolimus 10 mg×kg^−1, propranolol 40 mg×kg^−1
Procedure: For allograft studies, vascular lesions isolated from PIK3CA^CAG-CreER mice were rinsed with ice cold PBS, minced, resuspended with cold 1:1 DMEM/Matrigel, and injected subcutaneously in six-week-old female athymic Foxn1^nu nude mice. […] The following formula was applied:
[formula] After one week of treatment, VM were measured and harvested for further analysis. VM volume was calculated using the following formula: […]
(§1) IHC and IF stainings were performed using Discovery XT processor (Ventana Medical Systems) at the Molecular Cytology Core (MSKCC). Tissue sections were deparaffinized with EZPrep buffer (Ventana Medical Systems), antigen retrieval was performed with CC1 buffer (Ventana Medical Systems). Sections were blocked for 30 minutes with Background Buster solution (Innovex) or 10% normal rabbit serum (for LYVE-1 antibody) followed by avidin/biotin blocking for 8 minutes. Sections were stained with the following antibodies: CD31: (Dianova, DIA-310, 1 μg×mL^−1) for 5 hours, followed by 60 minutes incubation with biotinylated goat anti-rat IgG (Vector labs, PK-4004) at 1:200 dilution. The detection was performed with Streptavidin-HRP D (Ventana Medical Systems), followed by incubation with Alexa Fluor 488 (Invitrogen, T20922); BrdU: sections were pretreated with Protease K (5 μg×mL^−1) and incubated with anti-BrdU (Roche, 1170376, 1 μg×mL^−1) for 5 hours, followed by 60 minutes incubation with biotinylated horse anti-mouse IgG (Vector Labs, MKB-22258). The detection was performed with Streptavidin-HRP D (Ventana Medical Systems), followed by incubation with Alexa Fluor 594 (Invitrogen, T20935). When two markers were used, stainings were performed consecutively according to the procedure described above. After staining, slides were counterstained with DAPI (Sigma, D9542, 5 μg×mL^−1) for 10 min and coverslipped with Mowiol. Antibodies were used as follows: GLUT-1: Sections were incubated with anti-GLUT-1 antibody (Chemicon, AB1340, 0.5 μg×mL^−1) for 4 hours, followed by 60 minutes incubation with biotinylated goat anti-rabbit IgG (Vector labs, PK6101) at 1:200 dilution; LYVE-1: Sections were incubated with anti-LYVE-1 antibody (R&D Systems, AF2125, 1 μg×mL^−1) for 3 hours, followed by 60 minutes incubation with biotinylated rabbit anti-goat IgG (Vector, BA-5000) at 1:200 dilution.; and WT-1: Sections were incubated with anti-WT-1 antibody (Abcam, Ab89901, 1:50 dilution) for 1 hour, followed by 60 minutes incubation with biotinylated rabbit anti-goat IgG (Vector, BA-5000) at 1:200 dilution. For GLUT-1, LYVE-1, and WT-1 IHC, detection was performed with DAB detection kit (Ventana Medical Systems) according to manufacturer instructions, followed by counterstaining with hematoxylin (Ventana Medical Systems) and coverslipped with Permount (Fisher Scientific).

[5] = tested on: PIK3CA^Tie2-Cre embryos; experiment: Treatment of pregnant PIK3CA^Tie2-Cre mice, embryo vascular phenotype; assay type: in vivo
Procedure: as §1, with “For the treatment of pregnant PIK3CA^Tie2-Cre mice, BYL719 was administered orally three times at E7.5, E8.5, and E9.5. Two hours after the last treatment, embryos were harvested and characterized. IHC and” for “IHC and”

[6] = VVM in nude mice, BYL719 50 mg×kg-1 daily p.o.
[7] = pregnant mice, BYL719 50 mg×kg^−1 p.o., 48, 24 and 2 hours before harvest

SMILES | ANG2 protein expression [1] | ANG2 mRNA expression [1] | amount of phosphorylated AKT (T308 and S473) [2] | regression of skin lesions (VM volume) [3] | phospho-AKT (S473) levels [4, 6] | phospho-S6RP (S240/4) levels [4, 6] | VM volume [4] | apoptosis (cleaved caspase 3 in CD31-positive cells) [4] | proliferation (BrdU incorporation in CD31-positive cells) [4] | meningeal, cardinal vein and dorsal aorta blood vessel morphology (histology, CD31 coronal sections) ([5]; pregnant mice treated, E9.5 embryos) | Phospho-AKT staining in PIK3CA^Tie2-Cre and PIK3CA^WT embryos ([5]; pregnant mice treated, versus untreated control embryos) | cephalic and intersomitic small blood vessel formation (CD31 whole-mount staining) [5, 7] | overall body size of PIK3CA^Tie2-Cre E9.5 embryos [5, 7]
Cc1nc(NC(=O)N2CCC[C@H]2C(N)=O)sc1-c1ccnc(C(C)(C)C(F)(F)F)c1 [BYL719] | able to rescue | able to rescue | decreased | rapid and sustained regression of skin lesions | decrease | decrease | decrease in VM volume | increased apoptosis | decrease in proliferation; also recorded: reduced proliferation | reestablished meningeal, cardinal vein, and dorsal aorta blood vessels morphology | strong reduction | restored cephalic and intersomitic small blood vessel formation | comparable to PIK3CA^WT littermates
Cl.Cl.NC1(c2ccc(-c3nc4ccn5c(=O)[nH]nc5c4cc3-c3ccccc3)cc2)CCC1 [MK2206, 8-[4-(1-aminocyclobutyl)phenyl]-9-phenyl-1,2,4-triazolo[3,4-f][1,6]naphthyridin-3(2H)-one, dihydrochloride] | able to rescue | able to rescue | – | – | – | – | – | – | – | – | – | – | –
CO[C@H]1C[C@@H]2CC[C@@H](C)[C@@](O)(O2)C(=O)C(=O)N2CCCC[C@H]2C(=O)O[C@H]([C@H](C)C[C@@H]2CC[C@@H](OCCO)[C@H](OC)C2)CC(=O)[C@H](C)/C=C(\C)[C@@H](O)[C@@H](OC)C(=O)[C@H](C)C[C@H](C)/C=C/C=C/C=C/1C [everolimus] | – | – | – | – | – | – | partially decreased VM size; also recorded: greatest growth inhibition | did not increase apoptosis | partially decreased | – | – | – | –
